Test results: patent US11104690B2, “Indazole derivatives useful as inhibitors of diacylglyceride O-acyltransferase 2” (Merck Sharp & Dohme Corp., priority 2016, dated 2021)

The molecules below were run against Human DGAT2 (Homo sapiens (Human), UniProt Q96PD7) (assay: DGAT2 Enzymatic Activity Assay (triolein formation, LC/MS/MS)). Conditions: hDGAT2 Sf-9 membrane prep; 25 μM diolein, 10 μM oleoyl-CoA; room temperature.
Assay type: biochemical
Protocol: Sf-9 insect cells were maintained in Grace's insect cell culture medium with 10% heated-inactivated fetal bovine serum, 1% Pluronic F-68 and 0.14 μg/m Kanamycine sulfate in Erlenmeyer flasks at 28° C. in a shaker incubator. After infection with untagged hDGAT2 baculovirus at multiplicity of infection (MOI) 0.1 for 48 hours, cells were harvested. Cell pellets were suspended in buffer containing 10 mM Tris-HC (pH 7.5), 1 mM EDTA (pH 8.0), 250 mM sucrose and Complete Protease Inhibitor Cocktail (Roche Diagnostics Corp., Indianapolis, Ill.), and sonicated on ice. Membrane fractions were isolated by ultracentrifugation (100,000×g pellet), resuspended in the same buffer, and frozen (−80° C.) for later use. The protein concentration was determined with the BCA Protein Assay kit (Pierce Biotechnology Inc., Rockford, Ill.). Expression of protein levels was analyzed by immunoblotting with goat polyclonal DGAT2 antibody C-15 and donkey anti-goat IgG HRP (Santa Cruz Biotechnology, Inc., Santa Cruz, Calif.) followed by detection with ECL reagent (GE Healthcare, Piscataway, N.J.).
LC/MS/MS analyses were performed using Thermal Fisher's LX4-TSQ Vantage system. This system consists of an Agilent binary high-performance liquid chromatography (HPLC) pumps and a TSQ Vantage triple quadrupole MS/MS instrument. For each sample, 2 μL samples from the top organic layer of in-plate liquid-liquid extraction were injected onto a Thermo Betabasic C4 column (2.1 mm×20 mm, 5 μm particle size). The samples were then eluted using the following conditions; mobile phase: MeOH/water with 0.1% ammonium format=92/8 (v/v), flow rate: 1 mL/min, temperature: 25 C. Data was acquired in positive mode using a heated electrospray ionization (HESI) interface. The operational parameters for the TSQ Vantage MS/MS instrument were a spray voltage of 3000 V, capillary temperature of 280° C., vaporizer temperature 400° C., shealth gas 60 arbitrary unit, Aux gas 40 arbitrary units, S-lens 113 and collision gas 0.16 Pascals. […] (SRM) chromatograms of triolein (Q1: 902.9>Q3:602.3) and internal standard ([…]) were collected for 40 sec. The peak area was integrated by Xcalibur Quan software. The ratio between the triolein generated in the reaction and spiked in internal standard was used to generate percentage inhibition and IC50 values. Compound percentage inhibition was calculated by the following formula: Inhibition %=1−[(compound response−low control)/(high control−low control)]×100%. Potent compounds were titrated and IC50 were calculated by 4 parameter sigmoidal curve fitting formula.
DGAT2 activity was determined by measuring the amount of enzymatic product triolein (1,2,3-Tri(cis-9-octadecenoyl)glycerol) using the membrane prep mentioned above. The assay was carried out in deep well 384 plates in a final volume of 40 μL at room temperature. The assay mixture contained the following: assay buffer (100 mM Tris.Cl, pH 7.0, 20 mM MgCl2, 5% ethanol), 25 μM of diolein, 10 μM of oleoyl-CoA and 10 ng/μL of DGAT2 membrane.

Human DGAT2, sequence (Q96PD7 whole entry): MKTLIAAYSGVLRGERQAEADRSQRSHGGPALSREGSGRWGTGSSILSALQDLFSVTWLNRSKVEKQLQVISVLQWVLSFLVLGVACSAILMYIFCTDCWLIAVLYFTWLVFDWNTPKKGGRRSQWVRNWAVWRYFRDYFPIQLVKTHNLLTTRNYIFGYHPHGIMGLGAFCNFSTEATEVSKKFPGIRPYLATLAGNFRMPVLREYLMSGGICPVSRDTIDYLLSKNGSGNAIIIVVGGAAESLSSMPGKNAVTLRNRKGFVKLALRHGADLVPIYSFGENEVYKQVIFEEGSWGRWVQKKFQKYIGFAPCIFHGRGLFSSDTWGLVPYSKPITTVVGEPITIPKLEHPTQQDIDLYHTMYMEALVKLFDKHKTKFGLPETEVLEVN

| IC50 [nM] | SMILES |
| --- | --- |
| 686 | CN1CCC(NC(=O)c2ccc3c(-c4ccccc4Cl)nn(-c4ccc(F)cc4)c3c2)C1=O (racemic) [Example 6, 3-(2-chlorophenyl)-1-(4-fluorophenyl)-N-(1-methyl-2-oxopyrrolidin-3-yl)-1H-indazole-6-carboxamide] |
| 164 | CC(NC(=O)c1ccc2c(-c3ccccc3Cl)nn(-c3ccc(F)cc3)c2c1)c1cn(C(=O)OC(C)(C)C)cn1 (racemic) [Example 7, tert-butyl 4-[1-({[3-(2-chlorophenyl)-1-(4-fluorophenyl)-1H-indazol-6-yl]carbonyl}amino)ethyl]-1H-imidazole-1-carboxylate] |
| 78 | CC(NC(=O)c1ccc2c(-c3ccccc3Cl)nn(-c3ccc(F)cc3)c2c1)c1c[nH]cn1 (racemic) [Example 14, 3-(2-chlorophenyl)-1-(4-fluorophenyl)-N-[1-(1H-imidazol-4-yl)ethyl]-1H-indazole-6-carboxamide] |
| 83 | Cc1n[nH]c(C)c1C(C)NC(=O)c1ccc2c(-c3ccccc3Cl)nn(-c3ccc(F)cc3)c2c1 (racemic) [Example 17, 3-(2-chlorophenyl)-N-[1-(3,5-dimethyl-1H-pyrazol-4-yl)ethyl]-1-(4-fluorophenyl)-1H-indazole-6-carboxamide] |
| 102 | CN1CC(NC(=O)c2ccc3c(-c4ccccc4Cl)nn(-c4ccc(F)cc4)c3c2)CC1=O (racemic) [Example 22, 3-(2-chlorophenyl)-1-(4-fluorophenyl)-N-(1-methyl-5-oxopyrrolidin-3-yl)-1H-indazole-6-carboxamide] |
| 403 | O=C(c1ccc2c(-c3ccccc3Cl)nn(-c3ccc(F)cc3)c2c1)N1CC2CC1CS(=O)(=O)C2 (racemic) [Example 23, 3-(2-chlorophenyl)-6-[(3,3-dioxido-3-thia-6-azabicyclo[3.2.1]oct-6-yl)carbonyl]-1-(4-fluorophenyl)-1H-indazole] |
| 301 | CC(c1cc(-c2ccccc2)[nH]n1)N(C)C(=O)c1ccc2c(-c3ccccc3Cl)nn(-c3ccc(F)cc3)c2c1 (racemic) [Example 27, 3-(2-chlorophenyl)-1-(4-fluorophenyl)-N-methyl-N-[1-(5-phenyl-1H-pyrazol-3-yl)ethyl]-1H-indazole-6-carboxamide] |
| 65 | O=C(NCC1CCS(=O)(=O)C1)c1ccc2c(-c3ccccc3Cl)nn(-c3ccc(F)cc3)c2c1 (racemic) [Example 29, 3-(2-chlorophenyl)-N-[(1,1-dioxidotetrahydrothiophen-3-yl)methyl]-1-(4-fluorophenyl)-1H-indazole-6-carboxamide] |
| 889 | CC(NC(=O)c1ccc2c(-c3ccccc3Cl)nn(-c3ccc(F)cc3)c2c1)c1nncn1C (racemic) [Example 36, 3-(2-chlorophenyl)-1-(4-fluorophenyl)-N-[1-(4-methyl-4H-1,2,4-triazol-3-yl)ethyl]-1H-indazole-6-carboxamide] |
| 519 | Cc1nc(C(C)NC(=O)c2ccc3c(-c4ccccc4Cl)nn(-c4ccc(F)cc4)c3c2)no1 (racemic) [Example 41, 3-(2-chlorophenyl)-1-(4-fluorophenyl)-N-[1-(5-methyl-1,2,4-oxadiazol-3-yl)ethyl]-1H-indazole-6-carboxamide] |
| 413 | O=C(NC1CCNC1=O)c1ccc2c(-c3ccccc3Cl)nn(-c3ccc(F)cc3)c2c1 (racemic) [Example 52, 3-(2-chlorophenyl)-1-(4-fluorophenyl)-N-(2-oxopyrrolidin-3-yl)-1H-indazole-6-carboxamide] |
| 669 | O=C1CC(NC(=O)c2ccc3c(-c4ccccc4Cl)nn(-c4ccc(F)cc4)c3c2)C(=O)N1 (racemic) [Example 57, 3-(2-chlorophenyl)-N-(2,5-dioxopyrrolidin-3-yl)-1-(4-fluorophenyl)-1H-indazole-6-carboxamide] |
| 461 | COC(=O)C1(NC(=O)c2ccc3c(-c4ccccc4Cl)nn(-c4ccc(F)cc4)c3c2)CCSC1 (racemic) [Example 59, methyl 3-({[3-(2-chlorophenyl)-1-(4-fluorophenyl)-1H-indazol-6-yl]carbonyl}amino)tetra-hydrothiophene-3-carboxylate] |
| 132 | O=C(NC1CCC(F)(F)C1)c1ccc2c(-c3ccccc3Cl)nn(-c3ccc(F)cc3)c2c1 (racemic) [Example 64, 3-(2-chlorophenyl)-N-(3,3-difluorocyclopentyl)-1-(4-fluorophenyl)-1H-indazole-6-carboxamide] |
| 170 | CCC(CO)NC(=O)c1ccc2c(-c3ccccc3Cl)nn(-c3ccc(F)cc3)c2c1 (racemic) [Example 65, 3-(2-chlorophenyl)-1-(4-fluorophenyl)-N-[1-(hydroxyinethyl)propyl]-1H-indazole-6-carboxamide] |
| 68 | O=C(N[C@@H]1CCCC[C@@H]1O)c1ccc2c(-c3ccccc3Cl)nn(-c3ccc(F)cc3)c2c1 (racemic) [Example 66] |
| 40 | O=C(N[C@@H]1CCCC[C@H]1O)c1ccc2c(-c3ccccc3Cl)nn(-c3ccc(F)cc3)c2c1 (racemic) [Example 67] |
| 357 | O=C(NC1(CO)CCc2ccccc21)c1ccc2c(-c3ccccc3Cl)nn(-c3ccc(F)cc3)c2c1 (racemic) [Example 75, 3-(2-chlorophenyl)-1-(4-fluorophenyl)-N-[1-(hydroxymethyl)-2,3-dihydro-1H-inden-1-yl]-1H-indazole-6-carboxamide] |
| 59 | O=C(NC1CCOC1)c1ccc2c(-c3ccccc3Cl)nn(-c3ccc(F)cc3)c2c1 (racemic) [Example 77, 3-(2-chlorophenyl)-1-(4-fluorophenyl)-N-(tetrahydrofuran-3-yl)-1H-indazole-6-carboxamide] |
| 353 | O=C(NC(CO)C1CC1)c1ccc2c(-c3ccccc3Cl)nn(-c3ccc(F)cc3)c2c1 (racemic) [Example 78, 3-(2-chlorophenyl)-N-(1-cyclopropyl-2-hydroxyethyl)-1 (4-fluorophenyl)-1H-indazole-6-carboxamide] |
| 276 | O=C(NC1CCC(O)C1)c1ccc2c(-c3ccccc3Cl)nn(-c3ccc(F)cc3)c2c1 (racemic) [Example 83, 3-(2-chlorophenyl)-1-(4-fluorophenyl)-N-(3-hydroxycyclopentyl)-1H-indazole-6-carboxamide] |
| 125 | COC(=O)C1(NC(=O)c2ccc3c(-c4ccccc4Cl)nn(-c4ccc(F)cc4)c3c2)CC[S+]([O-])C1 (racemic) [Example 89, methyl 3-({[3-(2-chlorophenyl)-1-(4-fluorophenyl)-1H-indazol-6-yl]carbonyl}amino)tetra-hydrothiophene-3-carboxylate 1-oxide] |
| 90 | COC(=O)C1(NC(=O)c2ccc3c(-c4ccccc4Cl)nn(-c4ccc(F)cc4)c3c2)CCS(=O)(=O)C1 (racemic) [Example 90, methyl 3-({[3-(2-chlorophenyl)-1-(4-fluorophenyl)-1H-indazol-6-yl]carbonyl}amino)tetra-hydrothiophene-3-carboxylate 1,1-dioxide] |
| 572 | CC(C)(C)OC(=O)N1CCS(=O)(=O)CC(NC(=O)c2ccc3c(-c4ccccc4Cl)nn(-c4ccc(F)cc4)c3c2)C1 (racemic) [Example 91, tert-butyl 6-({[3-(2-chlorophenyl)-1-(4-fluorophenyl)-1H-indazol-6-yl]carbonyl}amino)-1,4-thiazepane-4-carboxylate 1,1-dioxide] |
